Data as given in ChEMBL document CHEMBL1201862, “PubChem BioAssay data set” (2004).
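A five-concentration, 48-hour dose response in 96-well plates underlies each endpoint, interpolated linearly between surrounding concentrations. At the GI50, growth is halved.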 Activity calls are given as the source filed them. Cut-off read from the data, not from the text of the source: active = GI50 up to about 1.1 µM and inactive = higher.

Key:
Experiment in all cases: inhibition of tumour cell growth, NCI panel, 48 h
SNB-19 = test system: SNB-19
RPMI-8226 = test system: RPMI-8226
SF-295 = test system: SF-295
UACC-257 = test system: UACC-257
UO-31 = test system: UO-31
NCI-H23 = test system: NCI-H23
NCI-H522 = test system: NCI-H522
DU-145 = test system: DU-145
Hs-578T = test system: Hs-578T
COLO 205 = test system: COLO 205
NCI-H226 = test system: NCI-H226
OVCAR-5 = test system: OVCAR-5
Malme-3M = test system: Malme-3M
NCI/ADR-RES = test system: NCI/ADR-RES
SK-MEL-28 = test system: SK-MEL-28
U-251 = test system: U-251
M14 = test system: M14
SNB-75 = test system: SNB-75
SF-268 = test system: SF-268
HCT-116 = test system: HCT-116
A498 = test system: A498
HL-60 = test system: HL-60
SK-MEL-2 = test system: SK-MEL-2
CCRF-CEM = test system: CCRF-CEM
OVCAR-4 = test system: OVCAR-4
CAKI-1 = test system: CAKI-1
KM12 = test system: KM12
A549 = test system: A549
RXF 393 = test system: RXF 393
PC-3 = test system: PC-3
TK-10 = test system: TK-10
HT-29 = test system: HT-29
HCT-15 = test system: HCT-15
ACHN = test system: ACHN
SN12C = test system: SN12C
MDA-MB-435 = test system: MDA-MB-435
HOP-92 = test system: HOP-92
MCF7 = test system: MCF7
MDA-N = test system: MDA-N
786-0 = test system: 786-0
SR = test system: SR
BT-549 = test system: BT-549
SK-MEL-5 = test system: SK-MEL-5
SF-539 = test system: SF-539
NCI-H460 = test system: NCI-H460
HOP-62 = test system: HOP-62
LOX IMVI = test system: LOX IMVI
MDA-MB-231 = test system: MDA-MB-231
MOLT-4 = test system: MOLT-4
HCC 2998 = test system: HCC 2998
K562 = test system: K562
SW-620 = test system: SW-620
OVCAR-8 = test system: OVCAR-8
EKVX = test system: EKVX
OVCAR-3 = test system: OVCAR-3
IGROV-1 = test system: IGROV-1
SK-OV-3 = test system: SK-OV-3
UACC-62 = test system: UACC-62
T47D = test system: T47D

Q: `CN(C)CCNC(=O)c1cc(NC(=O)c2cc(NC(=O)CC/C=C3/[C@@H]4CC[C@H]3N=N4)cn2C)cn1C` was tested. Which GI50 (SNB-19) did it give?
A: Its GI50 is > 100 µM (inactive).

Q: And the GI50 (RPMI-8226)?
A: Its GI50 is > 100 µM (inactive).

Q: And the GI50 (SF-295)?
A: The GI50 was > 100 µM (inactive).

Q: And the GI50 (UACC-257)?
A: The GI50 was > 100 µM (inactive).

Q: And the GI50 (UO-31)?
A: Its GI50 is > 100 µM (inactive).

Q: What about the GI50 (NCI-H23) of the same molecule?
A: The GI50 was > 100 µM (inactive).

Q: And the GI50 (NCI-H522)?
A: Its GI50 is > 100 µM (inactive).

Q: What about the GI50 (DU-145) of the same molecule?
A: Its GI50 is > 100 µM (inactive).

Q: What about the GI50 (Hs-578T) of the same molecule?
A: Its GI50 is > 100 µM (inactive).

Q: And the GI50 (COLO 205)?
A: Its GI50 is > 100 µM (inactive).

Q: And the GI50 (NCI-H226)?
A: The GI50 was > 100 µM (inactive).

Q: What about the GI50 (OVCAR-5) of the same molecule?
A: The GI50 was > 100 µM (inactive).

Q: And the GI50 (Malme-3M)?
A: The GI50 was 70.3 µM (inactive).

Q: And the GI50 (NCI/ADR-RES)?
A: Its GI50 is > 100 µM (inactive).

Q: What about the GI50 (SK-MEL-28) of the same molecule?
A: Its GI50 is > 100 µM (inactive).

Q: And the GI50 (U-251)?
A: The GI50 was > 100 µM (inactive).

Q: And the GI50 (M14)?
A: Its GI50 is > 100 µM (inactive).

Q: What about the GI50 (SNB-75) of the same molecule?
A: Its GI50 is > 100 µM (inactive).

Q: And the GI50 (SF-268)?
A: Its GI50 is > 100 µM (inactive).

Q: And the GI50 (HCT-116)?
A: The GI50 was > 100 µM (inactive).

Q: What about the GI50 (A498) of the same molecule?
A: The GI50 was > 100 µM (inactive).

Q: What about the GI50 (HL-60) of the same molecule?
A: Its GI50 is > 100 µM (inactive).

Q: And the GI50 (SK-MEL-2)?
A: The GI50 was > 100 µM (inactive).

Q: And the GI50 (CCRF-CEM)?
A: Its GI50 is > 100 µM (inactive).

Q: What about the GI50 (OVCAR-4) of the same molecule?
A: The GI50 was > 100 µM (inactive).

Q: What about the GI50 (CAKI-1) of the same molecule?
A: Its GI50 is > 100 µM (inactive).

Q: And the GI50 (KM12)?
A: Its GI50 is > 100 µM (inactive).

Q: What about the GI50 (A549) of the same molecule?
A: The GI50 was > 100 µM (inactive).

Q: And the GI50 (RXF 393)?
A: The GI50 was > 100 µM (inactive).

Q: And the GI50 (PC-3)?
A: The GI50 was > 100 µM (inactive).

Q: What about the GI50 (TK-10) of the same molecule?
A: Its GI50 is > 100 µM (inactive).

Q: What about the GI50 (HT-29) of the same molecule?
A: The GI50 was > 100 µM (inactive).

Q: What about the GI50 (HCT-15) of the same molecule?
A: Its GI50 is > 100 µM.

Q: And the GI50 (ACHN)?
A: The GI50 was > 100 µM (inactive).

Q: And the GI50 (SN12C)?
A: Its GI50 is > 100 µM (inactive).

Q: What about the GI50 (MDA-MB-435) of the same molecule?
A: Its GI50 is > 100 µM (inactive).

Q: What about the GI50 (HOP-92) of the same molecule?
A: The GI50 was > 100 µM (inactive).

Q: What about the GI50 (MCF7) of the same molecule?
A: The GI50 was > 100 µM (inactive).

Q: What about the GI50 (MDA-N) of the same molecule?
A: The GI50 was > 100 µM (inactive).

Q: What about the GI50 (786-0) of the same molecule?
A: Its GI50 is > 100 µM (inactive).

Q: And the GI50 (SR)?
A: The GI50 was > 100 µM (inactive).

Q: What about the GI50 (BT-549) of the same molecule?
A: The GI50 was > 100 µM (inactive).

Q: And the GI50 (SK-MEL-5)?
A: Its GI50 is > 100 µM (inactive).

Q: And the GI50 (SF-539)?
A: Its GI50 is > 100 µM (inactive).

Q: What about the GI50 (NCI-H460) of the same molecule?
A: Its GI50 is > 100 µM (inactive).

Q: What about the GI50 (HOP-62) of the same molecule?
A: The GI50 was > 100 µM (inactive).

Q: And the GI50 (LOX IMVI)?
A: The GI50 was > 100 µM (inactive).

Q: What about the GI50 (MDA-MB-231) of the same molecule?
A: The GI50 was > 100 µM (inactive).

Q: What about the GI50 (MOLT-4) of the same molecule?
A: The GI50 was > 100 µM (inactive).

Q: What about the GI50 (HCC 2998) of the same molecule?
A: The GI50 was > 100 µM (inactive).

Q: And the GI50 (K562)?
A: The GI50 was > 100 µM (inactive).

Q: And the GI50 (SW-620)?
A: Its GI50 is > 100 µM (inactive).

Q: What about the GI50 (OVCAR-8) of the same molecule?
A: The GI50 was > 100 µM (inactive).

Q: What about the GI50 (EKVX) of the same molecule?
A: The GI50 was > 100 µM (inactive).

Q: What about the GI50 (OVCAR-3) of the same molecule?
A: Its GI50 is > 100 µM (inactive).

Q: And the GI50 (IGROV-1)?
A: Its GI50 is > 100 µM (inactive).

Q: What does the source list for `COc1cc(/C=C/C(=O)CC(=O)/C=C/c2cc(C)c(O)c(OC)c2)cc(C)c1O`?
A: GI50 (SNB-19): > 100 µM (inactive); GI50 (RPMI-8226): 37.6 µM (inactive); GI50 (SF-295): > 100 µM (inactive); GI50 (UACC-257): > 100 µM (inactive); GI50 (UO-31): > 100 µM (inactive); GI50 (NCI-H23): > 100 µM (inactive); GI50 (NCI-H522): > 100 µM (inactive); GI50 (DU-145): > 100 µM (inactive); GI50 (Hs-578T): > 100 µM (inactive); GI50 (COLO 205): > 100 µM (inactive); GI50 (NCI-H226): > 100 µM (inactive); GI50 (OVCAR-5): > 100 µM (inactive); GI50 (Malme-3M): > 100 µM (inactive); GI50 (NCI/ADR-RES): > 100 µM (inactive); GI50 (SK-MEL-28): > 100 µM (inactive); GI50 (U-251): > 100 µM (inactive); GI50 (SK-OV-3): > 100 µM (inactive); GI50 (M14): > 100 µM (inactive); GI50 (SNB-75): > 100 µM (inactive); GI50 (SF-268): > 100 µM (inactive); GI50 (HCT-116): 58.3 µM (inactive); GI50 (A498): > 100 µM (inactive); GI50 (HL-60): 38.9 µM (inactive); GI50 (SK-MEL-2): > 100 µM (inactive); GI50 (UACC-62): > 100 µM (inactive); GI50 (CCRF-CEM): 65.6 µM (inactive); GI50 (OVCAR-4): > 100 µM (inactive); GI50 (CAKI-1): > 100 µM (inactive); GI50 (KM12): > 100 µM (inactive); GI50 (A549): > 100 µM (inactive); GI50 (PC-3): > 100 µM (inactive); GI50 (HT-29): > 100 µM (inactive); GI50 (HCT-15): > 100 µM; GI50 (ACHN): > 100 µM (inactive); GI50 (SN12C): > 100 µM (inactive); GI50 (MDA-MB-435): > 100 µM (inactive); GI50 (HOP-92): < 0.01 µM (active); GI50 (MCF7): 52.8 µM (inactive); GI50 (T47D): > 100 µM (inactive); GI50 (786-0): > 100 µM (inactive); GI50 (SR): 6.82 µM (inactive); GI50 (BT-549): > 100 µM (inactive); GI50 (SK-MEL-5): > 100 µM (inactive); GI50 (SF-539): > 100 µM (inactive); GI50 (NCI-H460): > 100 µM (inactive); GI50 (HOP-62): > 100 µM (inactive); GI50 (LOX IMVI): > 100 µM (inactive); GI50 (MDA-MB-231): > 100 µM (inactive); GI50 (MOLT-4): > 100 µM (inactive); GI50 (HCC 2998): > 100 µM (inactive); GI50 (K562): > 100 µM (inactive); GI50 (SW-620): > 100 µM (inactive); GI50 (OVCAR-8): > 100 µM (inactive); GI50 (EKVX): > 100 µM (inactive); GI50 (OVCAR-3): 83.4 µM (inactive); GI50 (IGROV-1): > 100 µM (inactive)
